The data set can be described thus: Solubility in water as a function of pH. Format: physicochemical.

`CCCCCCOC(=O)NC(=N)c1ccc(NCc2nc3cc(C(=O)N(CCC(=O)OCC)c4ccccn4)ccc3n2C)cc1` [compound of formula I, ethyl 3-[(2-{[4-(hexyloxycarbonylamino-imino-methyl)-phenylamino]-methyl}-1-methyl-1H-benzimidazole-5-carbonyl)-pyridin-2-yl-amino]-propionate]: the “solubility in water at low pH levels” value (low pH) is “dissolves relatively well”. Further, the “solubility in water at pH levels above 5” value (pH above 5, definition of the European Pharmacopoeia) is “virtually insoluble”.

The values above are taken from patent publication US9925174B2, “Administration form for the oral application of 3-[(2-{[4-(hexyloxycarbonyl-amino-imino-methyl)-phenylamino]-methyl}-1-methyl-1 H-benzimidazol acid ethyl ester and the salts thereof” (Boehringer Ingelheim International GmbH, priority 2002, dated 2018).
